Reference: US20110229415A1, “SEMI-SYNTHETIC ANTIBODIES AS RECOGNITION ELEMENTS” (priority 2007, published 2011)

Columns and labels:
Assay type in all cases: binding
[1] = test system: Mouse anti-Human IL-6 monoclonal antibody; test: Selecting the photoaffinity probe: photolabeling of antibody with radioactive nucleotide probes, SDS PAGE/autoradiography; conditions: IL-6 antibody, 300 μM of each probe, pH 4.0
Experimental: Selecting the photoaffinity probe. Two radioactive nucleotide probes, [γ-^32P]8-N3ATP and [γ-^32P]2-N3ATP were tested towards their reactivity with Mouse anti-Human IL-6 monoclonal antibody. For the labeling procedure 8 μg antibody was incubated with 300 μM of each probe in two different tubes in a final volume of 62 μl for 10 min on ice. The buffer used was 100 mM BTP at pH 4.0. After 10 min incubation the two tubes were photolyzed with a hand held UV lamp at 254 nm for 2 min and the reaction mixture was agitated in between to prevent local heating. The reaction was quenched by adding 12 μl of loading dye, PSM (5×) and heating it in a water bath for 5 min. The reaction products were then analyzed by SDS PAGE. ^32P incorporation was detected by autoradiography.

[2] = test system: mAb against Osteonectin; test: Labeling of mAb against Osteonectin with radioactive probes
Experimental: 2N3ATP versus [γ^32P] 8N3ATP. Lanes A and D have […] have 10 μL, and C and F have 15 μL of the labeled antibody. [γ^32P] 2N3ATP labels the antibody better than [γ^32P] 8N3ATP.

[3] = molecular target: mouse anti-human IL-6 antibody; test: Determination of KD by competitive labeling with 2-N3ATP [γ 32P] and 2-N3ATP-fluorophore; conditions: competition with 30 μM 2-N3ATP [γ 32P], 2 μg antibody, photolysis; read-out: apparent KD
Experimental: Determination of KD of the monoclonal antibody for 2-N3ATP-fluorophore. Competitive labeling of the mouse anti-human IL-6 antibody with 2-N3ATP [γ ^32P] and 2-N3ATP-fluorophore was done. 30 μM 2-N3ATP [γ ^32P] and 2 μg of the antibody was added to each 10 μM, 20 μM, 40 μM, 60 μM, 80 μM, 100 μM and 120 μM of 2-N3ATP-fluorophore tube and incubated for 20 min on ice. The tubes were then photolyzed for 1 min 15 s. The reaction was quenched by adding 5 μl of 0.25 mg/ml cysteine and analyzed by SDS/PAGE and autoradiography.

[4] = test system: Mouse anti-Human IL-6 monoclonal antibody; test: Saturation of labeling of antibody with photoreactive probe; conditions: 2 μg antibody, increasing probe concentrations, photolysis at 254 nm
Experimental: Saturation of labeling. 2 μg of Mouse anti-Human IL-6 monoclonal antibody was incubated with increasing concentrations of [γ-^32P]2-N3ATP for 20 min on ice and photolyzed with a hand held lamp at 254 nm for 1 min 15 sec. The reaction was quenched by adding 5 μl of 0.25 mg/ml cysteine and analyzed by SDS/PAGE and autoradiography.

Compound | labeling of the antibody, compared with the 8-azido probe [1] | labeling of the antibody, compared with the 8-azido probe [2] | Kd [3] [µM] | saturation of photolabeling (probe concentration) [4]
[N-]=[N+]=Nc1nc(N)c2ncn([C@@H]3O[C@H](COP(=O)(O)OP(=O)(O)OP(=O)(O)O)[C@@H](O)[C@H]3O)c2n1 [2-N3ATP, 2-azido ATP] | greater efficiency as compared to 8-N3ATP | greater efficiency as compared to 8-azido ATP |  | 
2-N3ATP-Alexa Fluor 594 cadaverine |  |  | ~17 | 
[N-]=[N+]=Nc1nc(N)c2ncn([C@@H]3O[C@H](COP(=O)(O)OP(=O)(O)O[32P](=O)(O)O)[C@@H](O)[C@H]3O)c2n1 [[γ-^32P]-2-N3ATP] | better than [γ-^32P]-8-N3ATP | better than [γ^32P] 8N3ATP |  | ~25 ΞM
